{
  "source": "patent US7989650B2",
  "about": "“Therapeutic delivery of carbon monoxide to extracorporeal and isolated organs” (hemoCORM Limited, priority 2002, dated 2011)",
  "key": {"[1]": {"details": "dissolved in DMSO; cited from earlier work"}, "[2]": {"system": "deoxymyoglobin (deoxy-Mb)", "experiment": "Detection of CO release: conversion of deoxymyoglobin to carbonmonoxy myoglobin (MbCO), spectrophotometric", "type": "physicochemical", "protocol": "The release of CO from CORM-3 or dCOMR-3 was assessed spectrophotometrically by measuring the conversion of deoxymyoglobin (deoxy-Mb) to carbonmonoxy myoglobin (MbCO) as previously described. The amount of MbCO formed was quantified by measuring the absorbance at 540 nm (extinction coefficient=[…]). Myoglobin solutions (66 μmol/L final concentration) were prepared fresh by dissolving the protein in 0.04 M phosphate buffer (pH 6.8). Sodium dithionite (0.1%) was added to convert myoglobin to deoxy-Mb prior to each reading.\nWhen CORM-3 was prepared in distilled water and then added to the phosphate buffer solution containing Mb, a spectrum characteristic of MbCO was rapidly detected (FIG. 1B)."}, "[3]": {"system": "isolated hearts from male Lewis rats", "experiment": "Ischaemia-reperfusion model in isolated Langendorff-perfused hearts", "parameters": "species or system rat", "protocol": "Isolated hearts from male Lewis rats (300-350 g) were perfused according to the Langendorff technique as previously described by our group. Briefly, hearts were rapidly excised and perfused at constant flow (11 ml/min) with Krebs-Henseleit buffer (in mM: 119 NaCl, 4.7 KCl, 2.5 CaCl2, 1.66 MgSO4, 24.9 NaHCO3, 1.18 KH2PO4, 5.55 glucose, 2.00 sodium pyruvate, 0.5 EGTA) bubbled with 95% O2 and 5% CO2 at 37° C. (pH 7.4). Coronary perfusion pressure (CPP) was continuously measured by a pressure transducer (Grass Instruments, Astromed, RI, USA) connected to the aortic cannula. A latex balloon filled with saline was inserted into the left ventricle through the atrium and connected by a catheter to a second pressure transducer. The balloon was inflated to provide an initial end-diastolic pressure (EDP) of 10 mmHg. Both transducers were connected to a computer and data were acquired with BioPac™ instrumentation and analyzed with the accompanying AcqKnowledge™ software (BIOPAC System Inc.). Left ventricular developed pressure (LVDP), heart rate (HR), maximal contraction (+dP/dt) and relaxation (−dP/dt) rates, CPP and EDP were continuously recorded throughout the period of perfusion.\nIsolated hearts were allowed to equilibrate at constant flow for 30 min and then made globally ischaemic by interrupting the buffer perfusion. Ischaemic hearts were kept at 37° C. in the water-jacketed chamber for 30 min and then reperfused for 60 min. All the hemodynamic parameters were continuously monitored throughout the experimental protocol as reported above. Krebs buffer was collected for 10 min from the pulmonary artery prior to the ischaemic event and in the last 10 min of reperfusion for creatine kinase (CK) analysis. At the end of reperfusion, hearts were stained to assess tissue viability using tetrazolium red. In additional experiments, hearts made ischaemic were infused for the first 10 min of reperfusion with CORM-3 or dCORM-3 (10 μM final concentration) via a syringe pump connected to the side arm of the aortic cannula. To assess a possible role of mitochondrial ATP-dependent potassium channels (KATP) in cardioprotection mediated by CORM-3, control hearts or hearts receiving CORM-3 were pre-treated for 10 min prior to ischaemia with […] (5-HD, 50 μM final concentration), a specific blocker of mitochondrial KATP.\nHearts from each experimental group (n=5) were stained for tissue viability at the end of the reperfusion period. Hearts were perfused through a side arm of the aortic cannula for 20 min with tetrazolium red (3% w/v) in Krebs Henseleit buffer at 37° C. The tetrazolium salt stains the viable myocardium brick red, whereas the infarcted tissue remains unstained and appears white. After staining, hearts were removed and stored in 2% formalin in the dark prior to analysis. Hearts were carefully cut into 2-mm thick sections, scanned into a computer using an AGFA Arcus® II scanner and the total ischaemic size was determined by volumetric analysis software (Scion Image®, Scion Corporation, MA, USA). Cardiac muscle damage was assessed by measuring the release of creatine kinase (CK) into the perfusate using a commercially available spectrophotometric assay kit (DG147-A) from Sigma Diagnostic (Poole, Dorset)."}, "[4]": {"system": "deoxymyoglobin (deoxy-Mb)", "details": "cited from earlier work"}, "[5]": {"system": "pre-contracted aortic rings", "details": "cited from earlier work"}, "[6]": {"details": "10 μM infused for first 10 min of reperfusion, 30 min ischaemia, 60 min reperfusion"}, "[7]": {"details": "at the end of reperfusion, 10 μM infused for first 10 min of reperfusion"}, "[8]": {"details": "before ischaemia, hearts later reperfused with CORM-3"}},
  "data": [
    {"compound": "[C-]#[O+].[C-]#[O+].[C-]#[O+].[C-]#[O+].[C-]#[O+].[C-]#[O+].[Cl][Ru][Cl].[Cl][Ru][Cl]", "note": "[[Ru(CO)3Cl2]2, Tricarbonyldichloro ruthenium(II) dimer]", "values": [
      {"measurement": "CO liberation on dissolution", "setting": "[1]", "result": "CO is liberated into solution"}
    ]},
    {"compound": "NCC(=O)O.[CH+]=O.[CH+]=O.[CH+]=O.[Cl][Ru]", "note": "[CORM-3, tricarbonylchloro-(glycinato)ruthenium(II)]", "values": [
      {"measurement": "CO liberated per mole of compound", "setting": "[2]; CORM-3 prepared in distilled water, added to phosphate buffer containing Mb", "result": 1, "unit": "mol"},
      {"measurement": "formation of MbCO", "setting": "[2]; addition of 40 μM CORM-3 prepared in distilled water, myoglobin 66 μmol/L, 0.04 M phosphate buffer pH 6.8", "result": "36.4 ± 0.9", "unit": "µM"},
      {"measurement": "ability to liberate CO (conversion of Mb to MbCO) after standing in water", "setting": "[2]; dissolved in water, left 24 h at room temperature", "result": "retained its full ability to liberate CO"},
      {"measurement": "stability / ability to release CO in Krebs-Henseleit buffer", "setting": "[2]; prepared in Krebs-Henseleit buffer, over time", "result": "gradually decomposed over time and lost its ability to release CO"},
      {"measurement": "maximal rate of contraction (+dP/dt), after ischaemia-reperfusion", "setting": "[3]; [6]", "result": "3726±542", "unit": "mmHg/s"},
      {"measurement": "maximal rate of relaxation (−dP/dt), after ischaemia-reperfusion", "setting": "[3]; [6]", "result": "2207±258", "unit": "mmHg/s"},
      {"measurement": "increase in left ventricular-developed pressure (LVDP) compared to baseline", "setting": "[3]; after 60 min reperfusion, 10 μM infused for first 10 min of reperfusion, 30 min global ischaemia", "result": 44, "unit": "%"},
      {"measurement": "increase in coronary perfusion pressure (CPP)", "setting": "[3]; [7]", "result": "13±2.2", "unit": "mmHg"},
      {"measurement": "increase in end diastolic pressure (EDP)", "setting": "[3]; [7]", "result": "3±1.8", "unit": "mmHg"},
      {"measurement": "maximal rate of contraction (+dP/dt), baseline", "setting": "[3]; [8]", "result": "2099±99", "unit": "mmHg/s"},
      {"measurement": "maximal rate of relaxation (−dP/dt), baseline", "setting": "[3]; [8]", "result": "1432±149", "unit": "mmHg/s"},
      {"measurement": "creatine kinase (CK) activity in buffer, before ischaemia", "setting": "[3]; buffer collected 10 min prior to ischaemia, hearts later reperfused with CORM-3", "result": "6.5±2.3", "unit": "U/L"},
      {"measurement": "infarct size (tetrazolium red staining)", "setting": "[3]; end of reperfusion, 10 μM infused for first 10 min of reperfusion", "result": "2.3±0.6", "unit": "%"},
      {"measurement": "protective effects on myocardial contractility (LVDP, +dP/dt, −dP/dt) and on EDP and CPP increases, with 5-HD pre-treatment", "setting": "[3]; hearts pre-treated 10 min prior to ischaemia with 5-HD 50 μM, CORM-3 10 μM at reperfusion", "result": "totally abolished"},
      {"measurement": "creatine kinase (CK) activity in buffer, after reperfusion", "setting": "[3]; last 10 min of reperfusion, 10 μM infused for first 10 min of reperfusion", "result": "19.9±5.3", "unit": "U/L"}
    ]},
    {"compound": "[Fe(SPh)2(2,2′-bipyridine)(CO)2]", "values": [
      {"measurement": "release of CO to myoglobin in solution", "setting": "[4]", "result": "not to release CO to myoglobin in solution"},
      {"measurement": "dilatation of pre-contracted aortic rings", "setting": "[5]", "result": "capable of promoting dilatation of pre-contracted aortic rings"}
    ]}
  ]
}
